The target in the assay is T1, ALK 5 (Homo sapiens, UniProt P36897).
T1 sequence (P36897 34-503): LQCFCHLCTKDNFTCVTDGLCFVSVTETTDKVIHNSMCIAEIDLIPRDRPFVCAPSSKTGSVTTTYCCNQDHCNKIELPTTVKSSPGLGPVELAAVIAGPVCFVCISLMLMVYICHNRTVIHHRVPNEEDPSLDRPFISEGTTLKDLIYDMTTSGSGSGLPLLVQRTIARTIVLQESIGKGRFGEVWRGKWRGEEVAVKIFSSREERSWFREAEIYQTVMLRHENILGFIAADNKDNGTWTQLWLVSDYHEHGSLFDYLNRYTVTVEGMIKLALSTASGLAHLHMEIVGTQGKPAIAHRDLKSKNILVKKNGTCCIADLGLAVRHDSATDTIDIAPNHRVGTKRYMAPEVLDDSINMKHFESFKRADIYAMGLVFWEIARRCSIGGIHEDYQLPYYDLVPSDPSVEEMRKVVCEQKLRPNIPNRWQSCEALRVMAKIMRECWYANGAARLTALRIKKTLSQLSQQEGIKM
The assay can be described thus: In vitro kinase assay (ALK5 IC50, LanthaScreen Terbium labeled TR-FRET). The format is biochemical. The settings on record: TGF-β kinase 6 nM, ATP 10 μM, read-out: Enzyme Activity ALK 5 IC50. The procedure: Compounds of the invention were screened in an in vitro kinase assay against ALK 5, a members of the TGF-β family of Ser/Thr kinases. Standard kinase testing conditions and techniques were employed. IC50 values of compounds against TGF-ß kinase was determined by LanthaScreen™ Terbium Labeled TR-FRET assay. Kinase assays were performed in 1X kinase buffer (# PV6135, Invitrogen, Life Technologies Grand Island, N.Y.) where total reaction volume was 10 μL in low-volume 384-well plates (#4511, Corning). Serially diluted compounds (3-fold) were incubated with TGF-β kinase (6 nM) for 10 min, following which a mixture of ATP (10 μM) (# A1852, Sigma, St-Louis, Mo.) and fluorescent-PolyGT substrate (200 nM); Cat # PV3610, Invitrogen, Life Technologies Grand Island, N.Y.) was added and incubated in dark at room temperature for 1 h. After 1 h, 10 μL stop solution containing Terbium labeled antibody (4 nM; Cat # PV3529, Invitrogen, Life Technologies Grand Island, N.Y.) and EDTA (# E5134, Sigma, St-Louis, Mo.; 20 mM) in TR-FRET dilution buffer (Cat # PV3574, Invitrogen, Life Technologies Grand Island, N.Y.) was added. Readings were taken in a Synergy Neo Plate reader (BioTek, Winooski) at single excitation of 340 nm and Dual emission at 495 nm and 520 nm respectively.
The % activity of test samples was calculated as (Sample-Min)×100/(Max −Min). [Max: DMSO control, complete reaction with enzyme with DMSO and Min: No enzyme with DMSO]. Percent inhibition (100-% activity) was fitted to the “four-parameter logistic model” in XLfit for determination of IC50 values.
Take `CN(C)c1[nH]c(=O)c(-c2cc(Cl)ccc2F)cc1Nc1ccnc2ccccc12` [Compound 1.16, 3-(5-chloro-2-fluorophenyl)-6-(dimethylamino)-5-(quinolin-4-ylamino)pyridin-2(1H)-one]: the IC50 is > 5 µM.
As for `C[C@@H](O)CNC(=O)c1cnccc1Nc1cc(-c2cc(Cl)ccc2F)c(=O)n2c1N(C)CC2` [Compound 1.24, (R)-4-((6-(5-chloro-2-fluorophenyl)-1-methyl-5-oxo-1,2,3,5-tetrahydroimidazo[1,2-a]pyridin-8-yl)amino)-N-(2-hydroxypropyl)nicotinamide], the IC50 is > 5 µM.
The figure for `CC(=O)Nc1cc(Nc2cc(-c3cc(Cl)c(C)cc3F)c(=O)[nH]c2C(C)C)ccn1` [Compound 1.64, N-(4-((5-(5-chloro-2-fluoro-4-methylphenyl)-2-isopropyl-6-oxo-1,6-dihydropyridin-3-yl)amino)pyridin-2-yl)acetamide] is > 5 µM.
As to `CC(=O)Nc1cc(Nc2cc(-c3ccc(F)c(C)c3)c(=O)[nH]c2C(C)C)ccn1` [Compound 1.83, N-(4-((5-(4-fluoro-3-methylphenyl)-2-isopropyl-6-oxo-1,6-dihydropyridin-3-yl)amino)pyridin-2-yl)acetamide], the concentration for half-maximal inhibition (IC50) was ≤ 0.5 µM.
Next, `CC(C)c1[nH]c(=O)c(-c2cc(Cl)ccc2F)cc1Nc1ccnc(C(C)(C)C#N)c1` [Compound 1.60, 2-(4-((5-(5-chloro-2-fluorophenyl)-2-isopropyl-6-oxo-1,6-dihydropyridin-3-yl)amino)pyridin-2-yl)-2-methylpropanenitrile]: > 5 µM; `CC(=O)Nc1cc(Nc2cc(-c3cccc(Cl)c3)c(=O)[nH]c2C(C)C)ccn1` [Compound 1.81, N-(4-((5-(3-chlorophenyl)-2-isopropyl-6-oxo-1,6-dihydropyridin-3-yl)amino)pyridin-2-yl)acetamide]: ≤ 0.5 µM; `CN(C)c1[nH]c(=O)c(-c2cc(Cl)ccc2F)cc1Nc1ccncc1C#N` [Compound 1.34, 4-((5-(5-chloro-2-fluorophenyl)-2-(dimethylamino)-6-oxo-1,6-dihydropyridin-3-yl)amino)nicotinonitrile]: > 5 µM.
As to `CC(C)c1[nH]c(=O)c(-c2cc(Cl)ccc2F)cc1Nc1ccnc(NC(=O)C2CC2)c1` [Compound 1.45, N-(4-((5-(5-chloro-2-fluorophenyl)-2-isopropyl-6-oxo-1,6-dihydropyridin-3-yl)amino)pyridin-2-yl)cyclopropanecarboxamide], the IC50 is > 5 µM.
Next, `CC(C)c1[nH]c(=O)c(-c2ccc(F)c(Cl)c2)cc1Nc1ccnc2[nH]ncc12` [Compound 1.84, 5-((1H-pyrazolo[3,4-b]pyridin-4-yl)amino)-3-(3-chloro-4-fluorophenyl)-6-isopropylpyridin-2(1H)-one]: ≤ 0.5 µM.
Turning to `CC(O)CNC(=O)c1cnccc1Nc1c[nH]c(=O)c(-c2cc(Cl)ccc2F)c1` (stereo not drawn) [Compound 1.1, 4-((5-(5-chloro-2-fluorophenyl)-6-oxo-1,6-dihydropyridin-3-yl)amino)-N-(2-hydroxypropyl)nicotinamide], the IC50 lay within 2 to 5 µM.
Next, `CC(C)c1[nH]c(=O)c(-c2cc(Cl)ccc2F)cc1Nc1c(F)cnc2[nH]ccc12` [Compound 1.57, 3-(5-chloro-2-fluorophenyl)-5-((5-fluoro-1H-pyrrolo[2,3-b]pyridin-4-yl)amino)-6-isopropylpyridin-2(1H)-one]: ≤ 0.5 µM; `COc1[nH]c(=O)c(-c2cc(Cl)ccc2F)cc1Nc1ccnc(NC(C)=O)c1` [Compound 1.75, N-(4-((5-(5-chloro-2-fluorophenyl)-2-methoxy-6-oxo-1,6-dihydropyridin-3-yl)amino)pyridin-2-yl)acetamide]: ≤ 0.5 µM.
Next, `CC(C)c1[nH]c(=O)c(-c2cc(Cl)ccc2F)cc1Nc1ccnc(NC(=O)C(C)(C)C)c1` [Compound 1.49, N-(4-((5-(5-chloro-2-fluorophenyl)-2-isopropyl-6-oxo-1,6-dihydropyridin-3-yl)amino)pyridin-2-yl)pivalamide]: > 5 µM; `CNC(=O)c1cnccc1Nc1cc(-c2cc(Cl)ccc2F)c(=O)[nH]c1SC` [Compound 1.39, 4-((5-(5-chloro-2-fluorophenyl)-2-(methylthio)-6-oxo-1,6-dihydropyridin-3-yl)amino)-N-methylnicotinamide]: ≤ 0.5 µM; `CCc1[nH]c(=O)c(-c2cc(Cl)ccc2F)cc1Nc1ccnc2ccncc12` [Compound 1.71, 5-((1,6-naphthyridin-4-yl)amino)-3-(5-chloro-2-fluorophenyl)-6-ethylpyridin-2(1H)-one]: ≤ 0.5 µM.
Next, `Cc1cc(-c2cc(Nc3ccnc4ccncc34)c(C(C)C)[nH]c2=O)ccc1F` [Compound 1.89, 5-((1,6-naphthyridin-4-yl)amino)-3-(4-fluoro-3-methylphenyl)-6-isopropylpyridin-2(1H)-one]: 2 to 5 µM; `CNC(=O)c1cnccc1Nc1cc(-c2cc(Cl)ccc2F)c(=O)[nH]c1C1CC1` [Compound 1.68, 4-((5-(5-chloro-2-fluorophenyl)-2-cyclopropyl-6-oxo-1,6-dihydropyridin-3-yl)amino)-N-methylnicotinamide]: ≤ 0.5 µM.
As to `CC(C)c1[nH]c(=O)c(-c2cc(Cl)ccc2F)cc1Nc1ccnc(N)c1` [Compound 1.44, 5-((2-aminopyridin-4-yl)amino)-3-(5-chloro-2-fluorophenyl)-6-isopropylpyridin-2(1H)-one], the IC50 is > 5 µM.
The figure for `CCc1[nH]c(=O)c(-c2cc(Cl)ccc2F)cc1Nc1ccncc1C(=O)NC` [Compound 1.72, 4-((5-(5-chloro-2-fluorophenyl)-2-ethyl-6-oxo-1,6-dihydropyridin-3-yl)amino)-N-methylnicotinamide] is ≤ 0.5 µM; for `C[C@@H](CO)NC(=O)c1cnccc1Nc1c[nH]c(=O)c(-c2cc(Cl)ccc2F)c1` [Compound 1.2, (S)-4-((5-(5-chloro-2-fluorophenyl)-6-oxo-1,6-dihydropyridin-3-yl)amino)-N-(1-hydroxypropan-2-yl)nicotinamide] it is > 5 µM.
With `CN1CCn2c1c(Nc1ccnc3[nH]ccc13)cc(-c1cc(Cl)ccc1F)c2=O` [Compound 1.18, 8-((1H-pyrrolo[2,3-b]pyridin-4-yl)amino)-6-(5-chloro-2-fluorophenyl)-1-methyl-2,3-dihydroimidazo[1,2-a]pyridin-5(1H)-one], the IC50 is ≤ 0.5 µM.
With `C[C@@H](CO)NC(=O)c1cnccc1Nc1cc(-c2cc(Cl)ccc2F)c(=O)n(C)c1N(C)C` [Compound 1.17, (S)-4-((5-(5-chloro-2-fluorophenyl)-2-(dimethylamino)-1-methyl-6-oxo-1,6-dihydropyridin-3-yl)amino)-N-(1-hydroxypropan-2-yl)nicotinamide], the concentration for half-maximal inhibition (IC50) is 2 to 5 µM.
As for `CC(=O)Nc1cc(Nc2cc(-c3ccc(F)c(Cl)c3)c(=O)[nH]c2C(C)C)ccn1` [Compound 1.58, N-(4-((5-(3-chloro-4-fluorophenyl)-2-isopropyl-6-oxo-1,6-dihydropyridin-3-yl)amino)pyridin-2-yl)acetamide], the IC50 was ≤ 0.5 µM.
Turning to `C[C@@H](CO)NC(=O)c1cnccc1Nc1cc(-c2cc(Cl)ccc2F)c(=O)n(C)c1` [Compound 1.8, (S)-4-((5-(5-chloro-2-fluorophenyl)-1-methyl-6-oxo-1,6-dihydropyridin-3-yl)amino)-N-(1-hydroxypropan-2-yl)nicotinamide], the IC50 was > 5 µM.
Next, `C[C@H](O)CNC(=O)c1cnccc1Nc1cc(-c2cc(Cl)ccc2F)c(=O)n(C)c1` [Compound 1.7, (S)-4-((5-(5-chloro-2-fluorophenyl)-1-methyl-6-oxo-1,6-dihydropyridin-3-yl)amino)-N-(2-hydroxypropyl)nicotinamide]: > 5 µM; `CN(C)c1[nH]c(=O)c(-c2cc(Cl)ccc2F)cc1Nc1ccncc1C(=O)NC(CO)CO` [Compound 1.11]: > 5 µM.
Next, `CC(C)c1[nH]c(=O)c(-c2cc(Cl)ccc2F)cc1Nc1ccnc2ccncc12` [Compound 1.42, 5-((1,6-naphthyridin-4-yl)amino)-3-(5-chloro-2-fluorophenyl)-6-isopropylpyridin-2(1H)-one]: 2 to 5 µM.

The values are drawn from patent US20200247812A1 (Integral Biosciences Private Limited, priority 2018, published 2020).
